From PubChem BioAssay (NCI)
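Briefly, cells in 96-well plates were exposed to five compound concentrations for 48 h, and endpoints were estimated by linear interpolation. GI50 is the concentration that inhibits growth by half. Definition used: TGI = concentration required for complete inhibition of growth.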

Legend:
Test in all cases: growth of human tumour cells (NCI), 48 h
[1] = system: DU-145 prostate
[2] = system: HS 578T breast
[3] = system: KM12 colon
[4] = system: NCI-H522 lung
[5] = system: NCI/ADR-RES ovarian
[6] = system: PC-3 prostate
[7] = system: SW-620 colon
[8] = system: TK-10 renal
[9] = system: U251 CNS
[10] = system: HOP-62 NSCLC

SMILES | TGI [1] | TGI [2] | TGI [3] | TGI [4] | TGI [5] | TGI [6] | TGI [7] | TGI [8] | TGI [9] | TGI [10] | GI50 [1] | GI50 [10] | GI50 [2] | GI50 [3] | GI50 [4] | GI50 [5] | GI50 [6] | GI50 [7] | GI50 [8] | GI50 [9]
C=C(C)C1Cc2cc(C(C)=O)ccc2O1 (configuration not stated) | > 100 µM | > 100 µM | > 100 µM | > 100 µM | > 100 µM | > 100 µM | > 100 µM | > 100 µM | > 100 µM | – | – | – | – | – | – | – | – | – | – | –
CC(C)(C)CC(C)(C)c1cc2c(O)c(c1)Cc1cc(C(C)(C)CC(C)(C)C)cc(c1O)Cc1cc(C(C)(C)CC(C)(C)C)cc(c1O)Cc1cc(C(C)(C)CC(C)(C)C)cc(c1O)Cc1cc(C(C)(C)CC(C)(C)C)cc(c1O)Cc1cc(C(C)(C)CC(C)(C)C)cc(c1O)Cc1cc(C(C)(C)CC(C)(C)C)cc(c1O)Cc1cc(C(C)(C)CC(C)(C)C)cc(c1O)C2 | – | – | > 100 µM | > 100 µM | – | – | > 100 µM | > 100 µM | > 100 µM | > 100 µM | – | – | – | – | – | – | – | – | – | –
CC(=O)OCCC/C(=C/c1cc2ccccc2c2ccccc12)[N+](=O)[O-] | 2.51 µM | > 23.1 µM | 2.89 µM | 0.981 µM | 4.31 µM | 3.94 µM | 2.81 µM | 3.14 µM | 2.74 µM | 3.5 µM | 1.26 µM | 1.91 µM | 2.47 µM | 1.56 µM | 252 nM | 1.99 µM | 1890 nM | 1.49 µM | 1.69 µM | 1.43 µM
CCSc1nc(N)c(C#N)c(-c2ccc(OC)c(OC)c2)c1C#N | > 50 µM | 43.7 µM | > 50 µM | 35.2 µM | > 50 µM | > 50 µM | > 50 µM | > 50 µM | > 50 µM | > 50 µM | 30.7 µM | 18.4 µM | 13.1 µM | 15.2 µM | 10200 nM | 21.9 µM | 10400 nM | 25.4 µM | 49.6 µM | 17.6 µM
CC1=CC[C@@H]2C(=O)C=CC=C[C@H]12.[C-]#[O+].[C-]#[O+].[C-]#[O+].[Fe] | – | – | > 100 µM | > 100 µM | – | – | – | > 100 µM | > 100 µM | > 100 µM | – | > 100 µM | – | > 100 µM | 9810 nM | – | – | – | > 100 µM | > 100 µM
CCCCCCCCCCCc1cc(=O)c2c(O)cccc2o1 | – | – | > 100 µM | > 100 µM | – | – | > 100 µM | > 100 µM | > 100 µM | > 100 µM | – | – | – | – | – | – | – | – | – | –
CCOc1ccc2c(c1)[n+]([O-])c(-c1ccc([N+](=O)[O-])cc1)c(N)[n+]2[O-] | – | – | > 100 µM | > 100 µM | – | – | > 100 µM | – | > 100 µM | > 100 µM | – | – | – | – | – | – | – | – | – | –
Cc1cc(O)cc(-c2nn(C)cc2-c2cc(N3CCOCC3)nc(-c3cccnc3)n2)c1 | > 100 µM | 9.06 µM | 20.7 µM | 18.1 µM | 33 µM | 17.2 µM | 48.1 µM | 95.3 µM | 18.9 µM | – | 3.97 µM | – | 2.04 µM | 3.23 µM | 2790 nM | 3.43 µM | 2440 nM | 8.14 µM | 8.68 µM | 4.19 µM
Cc1cccc(/C=N/N=C(\N)NO)n1 | – | – | > 100 µM | > 100 µM | – | – | > 100 µM | > 100 µM | > 100 µM | > 100 µM | – | – | – | – | – | – | – | – | – | –
CC(C)=CC1(C)/C(=N\O)C(C)(CC(C)C)C(=O)N1O (configuration not stated) | – | – | > 100 µM | > 100 µM | – | – | > 100 µM | > 100 µM | > 100 µM | > 100 µM | – | – | – | – | – | – | – | – | – | –
COC(=O)CCC(=O)Nc1cc(C)ccc1C | – | – | > 100 µM | > 100 µM | – | – | > 100 µM | > 100 µM | > 100 µM | > 100 µM | – | – | – | – | – | – | – | – | – | –
Cc1ccc(Nn2c(SCC(=O)Nc3nc(-c4ccccc4)cs3)nc(C)c2C)cc1 | 64.6 µM | > 100 µM | 19.1 µM | 86.8 µM | 22.2 µM | – | > 100 µM | > 100 µM | > 100 µM | > 100 µM | 9.75 µM | 18.4 µM | 34.1 µM | 4.13 µM | 2970 nM | 3.04 µM | – | 8.3 µM | 18.9 µM | 4.5 µM
COc1ccc(-c2cncn2-c2ccc(-c3nc4cc(OC)c(OC)c(OC)c4s3)cc2)cc1N | > 100 µM | > 100 µM | > 100 µM | 17.5 µM | > 100 µM | > 100 µM | > 100 µM | > 100 µM | > 100 µM | – | 6.38 µM | – | 28.3 µM | 3.8 µM | 3370 nM | 3.12 µM | 2590 nM | 6.21 µM | 4.16 µM | 6 µM
COc1ccc(C#CC2=C(Br)C(=O)OC2)cc1 | 11.4 µM | 28.2 µM | 11 µM | > 50 µM | 33.6 µM | 29.8 µM | 4.54 µM | 16.2 µM | 6.48 µM | – | 5.44 µM | – | 7.43 µM | 3.05 µM | 25800 nM | 12 µM | 11600 nM | 1.23 µM | 1.94 µM | 1.75 µM
O=C1Nc2cc(-c3ccc(O)cc3)ccc2/C1=C/c1ccc[nH]1 | > 36.4 µM | – | > 100 µM | > 20.1 µM | > 100 µM | > 25.8 µM | > 100 µM | > 71.9 µM | > 100 µM | > 100 µM | 0.815 µM | 0.559 µM | – | 0.247 µM | 258 nM | 0.251 µM | 416 nM | 0.0746 µM | 0.418 µM | 0.526 µM
Nc1ncc(-c2ccc3ncnc(N4CCc5cc(F)c(Cl)cc54)c3c2)cc1C(F)(F)F | > 100 µM | 2.54 µM | > 100 µM | > 100 µM | > 100 µM | > 100 µM | > 100 µM | – | > 100 µM | > 100 µM | 1.8 µM | 3.18 µM | 0.298 µM | 2.47 µM | 2010 nM | 2.05 µM | 1440 nM | 1.95 µM | – | 3.5 µM
